Like-named read-outs stand apart in the source and are kept apart here.
System: NL-RLuc virus
Assay: Inhibition of HIV replication (NL-RLuc luciferase reporter virus in MT-2 cells)
Assay type: cell-based
Details: Human immunodeficiency virus 1, MT2, 120 h
Excerpt: Inhibition of HIV Replication:
A recombinant NL-RLuc proviral clone was constructed in which a section of the nef gene from NL4-3 was replaced with the Renilla Luciferase gene. This virus is fully infectious and can undergo multiple cycles of replication in cell culture. In addition, the luciferous reporter provides a simple and easy method for quantitating the extent of virus growth and consequently, the antiviral activity of test compounds. The plasmid pNLRLuc contains the proviral NL-Rluc DNA cloned into pUC 18 at the PvuII site. The NL-RLuc virus was prepared by transfection of 293T cells with the plasmid pNLRLuc. Transfections were performed using the LipofectAMINE PLUS kit from Invitrogen (Carlsbad, Calif.) according to the manufacturer and the virus generated was titered in MT-2 cells. For susceptibility analyses, the titrated virus was used to infect MT-2 cells in the presence of compound, and after 5 days of incubation, cells were processed and quantitated for virus growth by the amount of expressed luciferase. Assay media was RPMI 1640 supplemented with 10% heat inactivated fetal bovine serum (FBS), 100 units/ml penicillin G/100 units/ml streptomycin, 10 mM HEPES buffer pH 7.55 and 2 mM L-glutamine. The results from at least 2 experiments were used to calculate the EC50 values. Luciferase was quantitated using the Dual Luciferase kit from Promega (Madison, Wis.). Susceptibility of viruses to compounds was determined by incubation in the presence of serial dilutions of the compound. The 50% effective concentration (EC50) was calculated by using the exponential form of the median effect equation where (Fa)=1/[1+(ED50/drug conc.)^m](Johnson V A, Byington R T. Infectivity Assay. In Techniques in HIV Research. ed. Aldovini A, Walker B D. 71-76. New York: Stockton Press.1990). Activity equal to A refers to a compound having an EC50≤100 nM, while B and C denote compounds having an EC50 between 100 nM and 1 uM (B) or >1 uM (C).

Row | Structure (SMILES) | EC50 (read-out: Activity) [µM] | EC50 (read-out: EC50 μM) [µM]
1 | Cc1nc(C)c([C@H](OC(C)(C)C)C(=O)O)c(N2CCC3(CCOC3)CC2)c1-c1ccc(OCCc2ccc(F)cc2)cc1 [Example 67, (S)-2-(tert-Butoxy)-2-(5-(4-(4-fluorophenethoxy)phenyl)-2,6-dimethyl-4-(2-oxa-8-azaspiro[4.5]decan-8-yl)pyridin-3-yl)acetic acid] | < 0.1 | 
2 | Cc1nc(C)c([C@H](OC(C)(C)C)C(=O)O)c(N2CC3CCC2C3)c1-c1ccc(C(=O)NCc2ccccc2)cc1 (stereo partly drawn) [Example 1, (S)-2-(5-(4-(Benzylcarbamoyl)phenyl)-4-(2-azabicyclo[2.2.1]heptan-2-yl)-2,6-dimethylpyridin-3-yl)-2-(tert-butoxy)acetic acid] | 0.1 to 1 | 0.446
3 | Cc1cc(F)ccc1CN1CCc2cc(-c3c(C)nc(C)c([C@H](OC(C)(C)C)C(=O)O)c3N3CCC4(CCC4)CC3)ccc2C1 [Example 35, (S)-2-(tert-Butoxy)-2-(5-(2-(4-fluoro-2-methylbenzyl)-1,2,3,4-tetrahydroisoquinolin-6-yl)-2,6-dimethyl-4-(7-azaspiro[3.5]nonan-7-yl)pyridin-3-yl)acetic acid] | < 0.1 | 0.006
4 | Cc1nc(C)c([C@H](OC(C)(C)C)C(=O)O)c(N2CCC3(CC2)CC3)c1-c1ccc(C(=O)NCc2ccccc2)cc1 [Example 17, (S)-2-(5-(4-(Benzylcarbamoyl)-phenyl)-2,6-dimethyl-4-(6-azaspiro[2.5]octan-6-yl)pyridin-3-yl)-2-(tert-butoxy)acetic acid] | < 0.1 | 
5 | Cc1nc(CN(C)C2CCOCC2)c(-c2ccc(OCCc3ccc(F)cc3)cc2)c(N2CCC3(CCC3)CC2)c1[C@H](OC(C)(C)C)C(=O)O [Example 50, (S)-2-(tert-Butoxy)-2-(5-(4-(4-fluorophenethoxy)phenyl)-2-methyl-6-((methyl(tetrahydro-2H-pyran-4-yl)amino)methyl)-4-(7-azaspiro[3.5]nonan-7-yl)pyridin-3-yl)acetic acid] | < 0.1 | 
6 | Cc1nc(C)c([C@H](OC(C)(C)C)C(=O)O)c(N2CCC3(CC2)CC3(F)F)c1-c1ccc(OCCc2ccc(F)cc2)cc1 [Example 70, (S)-2-(tert-Butoxy)-2-(4-(1,1-difluoro-6-azaspiro[2.5]octan-6-yl)-5-(4-(4-fluorophenethoxy)phenyl)-2,6-dimethylpyridin-3-yl)acetic acid] | < 0.1 | 
7 | COc1ccc(NCc2nc(C)c([C@H](OC(C)(C)C)C(=O)O)c(N3CCC4(CCC4)CC3)c2-c2ccc(OCCc3ccc(F)cc3)cc2)cc1 [Example 47, (S)-2-(tert-Butoxy)-2-(5-(4-(4-fluorophenethoxy)phenyl)-6-(((4-methoxyphenyl)-amino)methyl)-2-methyl-4-(7-azaspiro[3.5]nonan-7-yl)pyridin-3-yl)acetic acid] | < 0.1 | 
8 | COCCN(C)Cc1nc(C)c([C@H](OC(C)(C)C)C(=O)O)c(N2CCC3(CCC3)CC2)c1-c1ccc(OCCc2ccc(F)cc2)cc1 [Example 43, (S)-2-(tert-Butoxy)-2-(5-(4-(4-fluorophenethoxy)phenyl)-6-(((2-methoxyethyl)(methyl)amino)methyl)-2-methyl-4-(7-azaspiro[3.5]nonan-7-yl)pyridin-3-yl)acetic acid] | < 0.1 | 
9 | COc1cc(-c2c(C)nc(C)c([C@H](OC(C)(C)C)C(=O)O)c2N2CCC3(CCC3)CC2)ccc1C(=O)NCc1ccccc1 [Example 32, (S)-2-(5-(4-(Benzylcarbamoyl)-3-methoxyphenyl)-2,6-dimethyl-4-(7-azaspiro[3.5]nonan-7-yl)pyridin-3-yl)-2-(tert-butoxy)acetic acid] | < 0.1 | 
10 | Cc1nc(C)c([C@H](OC(C)(C)C)C(=O)O)c(N2CCC3(CCCCC3)C2)c1-c1ccc(OCCc2ccc(F)cc2)cc1 [Example 62, (S)-2-(tert-Butoxy)-2-(5-(4-(4-fluorophenethoxy)phenyl)-2,6-dimethyl-4-(2-azaspiro[4.5]decan-2-yl)pyridin-3-yl)acetic acid] | < 0.1 | 0.017
11 | Cc1nc(COC2COC2)c(-c2ccc(OCCc3ccc(F)cc3)cc2)c(N2CCC3(CCC3)CC2)c1[C@H](OC(C)(C)C)C(=O)O [Example 58, (S)-2-(tert-Butoxy)-2-(5-(4-(4-fluorophenethoxy)phenyl)-2-methyl-6-((oxetan-3-yloxy)methyl)-4-(7-azaspiro[3.5]nonan-7-yl)pyridin-3-yl)acetic acid] | < 0.1 | 
12 | CCOCCOCc1nc(C)c([C@H](OC(C)(C)C)C(=O)O)c(N2CCC3(CCC3)CC2)c1-c1ccc(OCCc2ccc(F)cc2)cc1 [Example 49, (S)-2-(tert-Butoxy)-2-(6-((2-ethoxyethoxy)methyl)-5-(4-(4-fluoro-phenethoxy)phenyl)-2-methyl-4-(7-azaspiro[3.5]nonan-7-yl)pyridin-3-yl)acetic acid] | < 0.1 | 0.006
13 | Cc1nc(CO)c([C@H](OC(C)(C)C)C(=O)O)c(N2CCC3(CCC3)CC2)c1-c1ccc(OCCc2ccc(F)cc2)cc1 [Example 39, (S)-2-(tert-Butoxy)-2-(5-(4-(4-fluorophenethoxy)phenyl)-2-(hydroxymethyl)-6-methyl-4-(7-azaspiro[3.5]nonan-7-yl)pyridin-3-yl)acetic acid] | < 0.1 | 
14 | Cc1nc(C)c([C@H](OC(C)(C)C)C(=O)O)c(N2CCC3(CCC3)CC2)c1-c1ccc(C(=O)NCc2ccccc2)cc1 [Example 29, (S)-2-(5-(4-(Benzylcarbamoyl)phenyl)-2,6-dimethyl-4-(7-azaspiro[3.5]nonan-7-yl)pyridin-3-yl)-2-(tert-butoxy)acetic acid] | < 0.1 | 0.007
15 | Cc1nc(C)c([C@H](OC(C)(C)C)C(=O)O)c(N2CCC3(CC2)CC3(F)F)c1-c1ccc(C(=O)NCc2ccccc2)cc1 [Example 71, (S)-2-(5-(4-(Benzylcarbamoyl)phenyl)-4-(1,1-difluoro-6-azaspiro[2.5]octan-6-yl)-2,6-dimethylpyridin-3-yl)-2-(tert-butoxy)acetic acid] | < 0.1 | 0.018
16 | Cc1nc(C)c([C@H](OC(C)(C)C)C(=O)O)c(N2CC3CCCC3C2)c1-c1ccc(OCCc2ccc(F)cc2)cc1 (stereo partly shown) [Example 3] | < 0.1 | 
17 | Cc1nc(C)c([C@H](OC(C)(C)C)C(=O)O)c(N2CCC3(CC2)CC3)c1-c1ccc(OCCc2ccc(F)cc2)cc1 [Example 16, (S)-2-(tert-Butoxy)-2-(5-(4-(4-fluorophenethoxy)phenyl)-2,6-dimethyl-4-(6-azaspiro[2.5]octan-6-yl)pyridin-3-yl)acetic acid] | < 0.1 | 0.003
18 | Cc1nc(C)c([C@H](OC(C)(C)C)C(=O)O)c(N2CCC3(CCNC3)CC2)c1-c1ccc(C(=O)NCc2ccccc2)cc1 [Example 69, (S)-2-(5-(4-(Benzylcarbamoyl)phenyl)-2,6-dimethyl-4-(2,8-diazaspiro[4.5]decan-8-yl)pyridin-3-yl)-2-(tert-butoxy)acetic acid] | > 1 | 9.66
19 | Cc1ccc(CN2CCc3cc(-c4c(C)nc(C)c([C@H](OC(C)(C)C)C(=O)O)c4N4CCC5(CCC5)CC4)ccc3C2)c(F)c1 [Example 37, (S)-2-(tert-Butoxy)-2-(5-(2-(2-fluoro-4-methylbenzyl)-1,2,3,4-tetrahydroisoquinolin-6-yl)-2,6-dimethyl-4-(7-azaspiro[3.5]nonan-7-yl)pyridin-3-yl)acetic acid] | < 0.1 | 
20 | Cc1nc(C)c([C@H](OC(C)(C)C)C(=O)O)c(N2CCC3(CCCC3)C2)c1-c1ccc(OCCc2ccc(F)cc2)cc1 [Example 14, (S)-2-(tert-Butoxy)-2-(5-(4-(4-fluorophenethoxy)phenyl)-2,6-dimethyl-4-(2-azaspiro[4.4]nonan-2-yl)pyridin-3-yl)acetic acid] | < 0.1 | 
21 | Cc1nc(C)c([C@H](OC(C)(C)C)C(=O)O)c(N2CCC3(CCNC3)CC2)c1-c1ccc(OCCc2ccc(F)cc2)cc1 [Example 68, (S)-2-(tert-Butoxy)-2-(5-(4-(4-fluorophenethoxy)phenyl)-2,6-dimethyl-4-(2,8-diazaspiro[4.5]decan-8-yl)pyridin-3-yl)acetic acid] | 0.1 to 1 | 0.731
22 | Cc1nc(C)c([C@H](OC(C)(C)C)C(=O)O)c(N2CCC3(CCCCCC3)C2)c1-c1ccc(C(=O)NCc2ccccc2)cc1 [Example 65, (S)-2-(5-(4-(Benzylcarbamoyl)phenyl)-2,6-dimethyl-4-(2-azaspiro[4.6]undecan-2-yl)pyridin-3-yl)-2-(tert-butoxy) acetic acid] | < 0.1 | 

Source: patent US20190010139A1 (priority 2015, published 2019)
